Data on 25 compounds can be found in patent publication US10660877B2 (BRISTOL-MYERS SQUIBB COMPANY, priority 2016, dated 2020).

Test [1] has as its target human TLR8 (Homo sapiens (Human), UniProt Q9NR97). As to the kind of experiment: TLR8 inhibition reporter assay (HEK-Blue cells, SEAP reporter, R848 stimulation).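 Further: compounds tested from 0.05 nM to 50 µM, 22 h at 37 °C, SEAP measured with HEK-Blue Detection, inhibition relative to agonist plus DMSO versus a known inhibitor.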 Particulars: read-out: TLR8 IC50, HEK-Blue cells overexpressing human TLR8, R848 15.9 μM. A general note: In a reporter assay the amount or activity of a reporter protein is the signal.
The target of test [2] is human TLR9 (Homo sapiens (Human), UniProt Q9NR96). As to the kind of experiment: TLR9 inhibition reporter assay (HEK-Blue cells, SEAP reporter, ODN2006 stimulation).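 Further: compounds tested over 0.05 nM to 50 µM, 22 h incubation, inhibition taken as SEAP signal drop from agonist plus DMSO wells toward a known inhibitor control.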 The note with it: read-out: TLR9 IC50, HEK-Blue cells overexpressing human TLR9, ODN2006 5 nM.
human TLR9, sequence (Q9NR96 26-1032): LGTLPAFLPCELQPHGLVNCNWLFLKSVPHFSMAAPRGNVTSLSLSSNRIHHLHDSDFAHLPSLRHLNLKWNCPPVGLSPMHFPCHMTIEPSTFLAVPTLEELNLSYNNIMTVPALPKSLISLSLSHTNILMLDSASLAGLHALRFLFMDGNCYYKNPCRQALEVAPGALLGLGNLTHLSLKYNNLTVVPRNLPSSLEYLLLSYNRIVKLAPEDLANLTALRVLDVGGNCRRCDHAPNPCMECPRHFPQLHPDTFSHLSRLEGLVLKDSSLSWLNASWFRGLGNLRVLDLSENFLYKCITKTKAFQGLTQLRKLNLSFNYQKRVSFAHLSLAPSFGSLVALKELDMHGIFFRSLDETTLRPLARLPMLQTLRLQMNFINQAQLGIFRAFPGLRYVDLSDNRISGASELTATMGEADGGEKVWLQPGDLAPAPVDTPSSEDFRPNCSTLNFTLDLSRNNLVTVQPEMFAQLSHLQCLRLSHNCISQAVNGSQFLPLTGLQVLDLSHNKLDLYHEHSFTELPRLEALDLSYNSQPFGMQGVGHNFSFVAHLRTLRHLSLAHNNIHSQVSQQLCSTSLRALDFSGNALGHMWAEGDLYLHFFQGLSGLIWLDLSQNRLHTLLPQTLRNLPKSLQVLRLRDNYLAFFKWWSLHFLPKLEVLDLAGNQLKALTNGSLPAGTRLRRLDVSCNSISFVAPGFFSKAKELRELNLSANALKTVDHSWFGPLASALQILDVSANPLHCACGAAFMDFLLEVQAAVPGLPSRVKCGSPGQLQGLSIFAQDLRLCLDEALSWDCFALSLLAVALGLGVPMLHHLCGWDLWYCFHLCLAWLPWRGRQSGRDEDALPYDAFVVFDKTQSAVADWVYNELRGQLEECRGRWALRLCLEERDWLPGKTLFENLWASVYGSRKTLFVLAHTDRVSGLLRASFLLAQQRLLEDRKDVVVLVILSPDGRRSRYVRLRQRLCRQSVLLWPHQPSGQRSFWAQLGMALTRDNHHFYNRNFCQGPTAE
For test [3], the target named is human TLR7 (Homo sapiens (Human), UniProt Q9NYK1). Briefly: TLR7 inhibition reporter assay (HEK-Blue cells, SEAP reporter, gardiquimod stimulation). It is filed as cell-based. Particulars: HEK-Blue cells overexpressing human TLR7, gardiquimod 7.5 μM.
human TLR7, sequence (Q9NYK1 27-1049): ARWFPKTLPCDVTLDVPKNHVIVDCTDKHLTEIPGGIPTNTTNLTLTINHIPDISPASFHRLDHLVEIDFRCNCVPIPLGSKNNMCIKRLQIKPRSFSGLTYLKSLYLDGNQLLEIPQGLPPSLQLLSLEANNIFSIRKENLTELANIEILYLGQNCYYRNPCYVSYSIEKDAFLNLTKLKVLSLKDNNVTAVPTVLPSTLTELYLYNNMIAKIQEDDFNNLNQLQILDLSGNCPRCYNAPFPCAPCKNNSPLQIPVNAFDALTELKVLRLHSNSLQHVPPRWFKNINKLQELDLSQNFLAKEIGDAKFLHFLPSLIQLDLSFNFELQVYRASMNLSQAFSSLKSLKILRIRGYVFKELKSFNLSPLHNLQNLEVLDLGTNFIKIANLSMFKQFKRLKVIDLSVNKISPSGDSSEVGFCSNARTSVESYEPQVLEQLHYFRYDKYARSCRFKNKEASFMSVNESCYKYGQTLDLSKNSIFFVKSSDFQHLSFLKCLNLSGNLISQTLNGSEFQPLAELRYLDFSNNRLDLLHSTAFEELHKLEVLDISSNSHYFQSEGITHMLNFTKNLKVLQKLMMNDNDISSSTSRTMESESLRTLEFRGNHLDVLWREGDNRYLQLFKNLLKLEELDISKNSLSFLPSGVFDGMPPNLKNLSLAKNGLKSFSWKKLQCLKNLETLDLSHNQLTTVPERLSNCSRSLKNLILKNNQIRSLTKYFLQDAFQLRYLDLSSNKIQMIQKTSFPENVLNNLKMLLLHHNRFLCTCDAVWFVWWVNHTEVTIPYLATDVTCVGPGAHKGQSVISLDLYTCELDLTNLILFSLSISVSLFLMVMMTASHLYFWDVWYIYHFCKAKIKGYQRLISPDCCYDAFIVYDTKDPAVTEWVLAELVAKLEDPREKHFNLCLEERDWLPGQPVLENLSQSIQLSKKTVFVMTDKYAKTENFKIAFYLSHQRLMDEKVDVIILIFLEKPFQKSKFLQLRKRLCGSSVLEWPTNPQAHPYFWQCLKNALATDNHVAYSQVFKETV

human TLR8, sequence (Q9NR97 27-1041): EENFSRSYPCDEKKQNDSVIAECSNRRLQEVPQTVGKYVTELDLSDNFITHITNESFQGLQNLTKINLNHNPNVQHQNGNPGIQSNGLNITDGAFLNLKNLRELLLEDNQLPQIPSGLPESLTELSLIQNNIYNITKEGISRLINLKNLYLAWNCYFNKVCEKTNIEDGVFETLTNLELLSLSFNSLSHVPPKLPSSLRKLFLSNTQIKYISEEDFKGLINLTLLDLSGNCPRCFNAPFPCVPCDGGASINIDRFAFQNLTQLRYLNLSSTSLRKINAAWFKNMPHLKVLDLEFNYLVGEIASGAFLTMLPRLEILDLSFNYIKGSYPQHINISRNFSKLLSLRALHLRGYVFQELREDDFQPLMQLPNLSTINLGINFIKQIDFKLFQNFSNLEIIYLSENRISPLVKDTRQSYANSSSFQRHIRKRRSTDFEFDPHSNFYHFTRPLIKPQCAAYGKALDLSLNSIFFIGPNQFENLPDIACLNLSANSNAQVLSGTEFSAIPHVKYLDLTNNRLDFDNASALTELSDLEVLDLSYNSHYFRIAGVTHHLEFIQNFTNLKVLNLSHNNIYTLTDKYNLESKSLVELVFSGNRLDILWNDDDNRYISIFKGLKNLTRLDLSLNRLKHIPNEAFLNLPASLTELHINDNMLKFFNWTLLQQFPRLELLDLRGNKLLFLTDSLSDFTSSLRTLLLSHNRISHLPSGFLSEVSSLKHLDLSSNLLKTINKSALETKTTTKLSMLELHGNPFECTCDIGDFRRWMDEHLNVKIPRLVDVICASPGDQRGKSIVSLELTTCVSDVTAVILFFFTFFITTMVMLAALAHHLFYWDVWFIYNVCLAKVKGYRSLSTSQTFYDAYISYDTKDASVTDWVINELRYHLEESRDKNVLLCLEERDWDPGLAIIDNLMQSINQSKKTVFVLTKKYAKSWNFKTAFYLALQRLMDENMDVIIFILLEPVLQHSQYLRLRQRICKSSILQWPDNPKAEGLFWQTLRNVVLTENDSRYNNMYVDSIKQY

Turning to `CCC(C)CN(CCO)C(=O)CN1CCC(c2ccc3[nH]c(-c4cc(C)nc(C)c4)c(C(C)C)c3c2)CC1` (stereo not drawn) [Example 297, 2-(4-(2-(2,6-dimethylpyridin-4-yl)-3-isopropyl-1H-indol-5-yl)piperidin-1-yl)-N-(2-hydroxyethyl)-N-(2-methylbutyl)acetamide], the IC50 (commonly the midpoint of a concentration-inhibition curve) in test [1] is 43.6 nM; in test [2] it was 710 nM; in test [3], 13.4 nM.

With `CCCCN(CCO)C(=O)CN1CCC(c2ccc3[nH]c(-c4cc(C)nc(C)c4)c(C(C)C)c3c2)CC1` [Example 298, N-butyl-2-(4-(2-(2,6-dimethylpyridin-4-yl)-3-isopropyl-1H-indol-5-yl)piperidin-1-yl)-N-(2-hydroxyethyl)acetamide], the IC50 stood at 100 nM in test [1], 2670 nM in test [2] and 25.6 nM in test [3].

`Cc1cc(-c2[nH]c3ccc(C4CCN(CC(=O)N(CCO)C(C)C)CC4)cc3c2C(C)C)cc(C)n1` [Example 299, 2-(4-(2-(2,6-dimethylpyridin-4-yl)-3-isopropyl-1H-indol-5-yl)piperidin-1-yl)-N-(2-hydroxyethyl)-N-isopropylacetamide]: the IC50 in test [1] was 112 nM; in test [2], 2630 nM; in test [3], 24 nM.

Take `Cc1cc(-c2[nH]c3ccc(C4CCN(CC(=O)N(CCO)Cc5ccc(F)cc5)CC4)cc3c2C(C)C)cc(C)n1` [Example 300, 2-(4-(2-(2,6-dimethylpyridin-4-yl)-3-isopropyl-1H-indol-5-yl)piperidin-1-yl)-N-(4-fluorobenzyl)-N-(2-hydroxyethyl)acetamide]: the IC50 in test [1] came to 70.7 nM; in test [2] it was 1660 nM; in test [3], 28.8 nM.

`Cc1cc(-c2[nH]c3ccc(C4CCN(CC(=O)N5C[C@H](C(F)(F)F)C[C@@H]5CO)CC4)cc3c2C(C)C)cc(C)n1` [Example 301, 2-(4-(2-(2,6-dimethylpyridin-4-yl)-3-isopropyl-1H-indol-5-yl)piperidin-1-yl)-1-((2R,4R)-2-(hydroxymethyl)-4-(trifluoromethyl)pyrrolidin-1-yl)ethan-1-one]: the IC50 in test [1] came to 118 nM; in test [2] it was 1580 nM; in test [3], 19.6 nM.

Take `Cc1cc(-c2[nH]c3ccc(C4CCN(CC(=O)N5CCC[C@@H]5CO)CC4)cc3c2C(C)C)cc(C)n1` [Example 302, (R)-2-(4-(2-(2,6-dimethylpyridin-4-yl)-3-isopropyl-1H-indol-5-yl)piperidin-1-yl)-1-(2-(hydroxymethyl)pyrrolidin-1-yl) ethan-1-one]: the IC50 in test [1] is 63.1 nM; in test [2] it was 1260 nM; in test [3] it was 8.2 nM.

In the case of `Cc1cc(-c2[nH]c3ccc(C4CCN(CC(=O)N(C)CCC5(O)CCCC5)CC4)cc3c2C(C)C)cc(C)n1` [Example 303, 2-(4-(2-(2,6-dimethylpyridin-4-yl)-3-isopropyl-1H-indol-5-yl)piperidin-1-yl)-N-(2-(1-hydroxycyclopentyl)ethyl)-N-methylacetamide], the values for the IC50 in test [1], in test [2] and in test [3] were 35.4 nM, 402 nM and 7.8 nM, respectively.

On to `Cc1cc(-c2[nH]c3ccc(C4CCN(CC(=O)N5CCOC[C@H]5CO)CC4)cc3c2C(C)C)cc(C)n1` [Example 304, (R)-2-(4-(2-(2,6-dimethylpyridin-4-yl)-3-isopropyl-1H-indol-5-yl)piperidin-1-yl)-1-(3-(hydroxymethyl)morpholino)ethan-1-one], for which the figures for the concentration for half-maximal inhibition (IC50) in test [1], in test [2] and in test [3] were 42.6 nM, 441 nM and 10.3 nM, respectively.

Consider `Cc1cc(-c2[nH]c3ccc(C4CCN(CC(=O)N(C)CC(C)(C)O)CC4)cc3c2C(C)C)cc(C)n1` [Example 305, 2-(4-(2-(2,6-dimethylpyridin-4-yl)-3-isopropyl-1H-indol-5-yl)piperidin-1-yl)-N-(2-hydroxy-2-methylpropyl)-N-methylacetamide], for which the IC50 in test [1] worked out at 11.1 nM; in test [2] it was 271 nM; in test [3], 4.9 nM.

Consider `Cc1cc(-c2[nH]c3ccc(C4CCN(CC(=O)N(C)[C@H]5CCOC5)CC4)cc3c2C(C)C)cc(C)n1` [Example 307, (S)-2-(4-(2-(2,6-dimethylpyridin-4-yl)-3-isopropyl-1H-indol-5-yl)piperidin-1-yl)-N-methyl-N-(tetrahydrofuran-3-yl)acetamide], for which the values for the IC50 in test [1], in test [2] and in test [3] were 87.2 nM, 3680 nM and 17.7 nM, respectively.

In the case of `Cc1cc(-c2[nH]c3ccc(C4CCN(CC(F)(F)F)CC4)cc3c2C(C)C)cc(C)n1` [Example 310, 2-(2,6-dimethylpyridin-4-yl)-3-isopropyl-5-(1-(2,2,2-trifluoroethyl)piperidin-4-yl)-1H-indole], the half-maximal inhibitory concentration (IC50) in test [1] was 895 nM; in test [2], 29900 nM; in test [3], 230 nM.

Turning to `Cc1cc(-c2[nH]c3ccc(C4CCN(CCCO)CC4)cc3c2C(C)C)cc(C)n1` [Example 311, 3-(4-(2-(2,6-dimethylpyridin-4-yl)-3-isopropyl-1H-indol-5-yl)piperidin-1-yl)propan-1-ol], the results for the IC50 in test [1], in test [2] and in test [3] were 2.5 nM, 270 nM and 1.8 nM, respectively.

As for `Cc1cc(-c2[nH]c3ccc(C4CCN(CC#N)CC4)cc3c2C(C)C)cc(C)n1` [Example 312, 2-(4-(2-(2,6-dimethylpyridin-4-yl)-3-isopropyl-1H-indol-5-yl)piperidin-1-yl)acetonitrile], the figures for the IC50 in test [1], in test [2] and in test [3] were 14 nM, 1390 nM and 5.4 nM, respectively.

`Cc1cc(-c2[nH]c3ccc(C4CCN(CC(O)C(F)(F)F)CC4)cc3c2C(C)C)cc(C)n1` (stereo not drawn) [Example 313, 3-(4-(2-(2,6-dimethylpyridin-4-yl)-3-isopropyl-1H-indol-5-yl)piperidin-1-yl)-1,1,1-trifluoropropan-2-ol]: the IC50 was determined as 6.3 nM in test [1], 8060 nM in test [2] and 39.9 nM in test [3].

For the compound `Cc1cc(-c2[nH]c3ccc(C4CCN(CCC(N)=O)CC4)cc3c2C(C)C)cc(C)n1` [Example 314, 3-(4-(2-(2,6-dimethylpyridin-4-yl)-3-isopropyl-1H-indol-5-yl)piperidin-1-yl)propanamide], the IC50 in test [1] was 3.2 nM; in test [2], 147 nM; in test [3], 1.4 nM.

Consider `Cc1cc(-c2[nH]c3ccc(C4CCN(CCC#N)CC4)cc3c2C(C)C)cc(C)n1` [Example 315, 3-(4-(2-(2,6-dimethylpyridin-4-yl)-3-isopropyl-1H-indol-5-yl)piperidin-1-yl)propanenitrile], for which the IC50 came to 9 nM in test [1], 1060 nM in test [2] and 6.6 nM in test [3].

For the compound `Cc1cc(-c2[nH]c3ccc(C4CCN(CC(O)C(F)(F)F)CC4)cc3c2C(C)C)cc(C)n1` (stereo not drawn) [Example 316, 3-(4-(2-(2,6-dimethylpyridin-4-yl)-3-isopropyl-1H-indol-5-yl)piperidin-1-yl)-1,1,1-trifluoropropan-2-ol], the IC50 in test [1] is 2.3 nM; in test [2], 780 nM; in test [3], 11.9 nM.

On to `Cc1cc(-c2[nH]c3ccc(C4CCN(CC(O)C(F)(F)F)CC4)cc3c2C(C)C)cc(C)n1` (stereo not drawn) [Example 317, 3-(4-(2-(2,6-dimethylpyridin-4-yl)-3-isopropyl-1H-indol-5-yl)piperidin-1-yl)-1,1-trifluoropropan-2-ol], for which the IC50 in test [1] was 13.2 nM; in test [2], 1120 nM; in test [3] it was 13.7 nM.

With `Cc1cc(-c2[nH]c3ccc(C4CCN(Cc5ccccc5)CC4)cc3c2C(C)C)cc(C)n1` [Example 318, 5-(1-benzylpiperidin-4-yl)-2-(2,6-dimethylpyridin-4-yl)-3-isopropyl-1H-indole], the IC50 in test [1] came to 12.6 nM; in test [2], 779 nM; in test [3], 25.4 nM.

On to `Cc1cc(-c2[nH]c3ccc(C4CCN(CC5(CO)COC5)CC4)cc3c2C(C)C)cc(C)n1` [Example 319, (3-((4-(2-(2,6-dimethylpyridin-4-yl)-3-isopropyl-1H-indol-5-yl)piperidin-1-yl)methyl)oxetan-3-yl)methanol], for which the figures for the IC50 in test [1], in test [2] and in test [3] were 4 nM, 355 nM and 2.7 nM, respectively.

For `Cc1cc(-c2[nH]c3ccc(C4CCN(CC5CN(Cc6ccccc6)CCO5)CC4)cc3c2C(C)C)cc(C)n1` (stereo not drawn) [Example 320, 4-benzyl-2-((4-(2-(2,6-dimethylpyridin-4-yl)-3-isopropyl-1H-indol-5-yl)piperidin-1-yl)methyl)morpholine], the IC50 in test [1] was 21.8 nM; in test [2], 192 nM; in test [3], 18.2 nM.

In the case of `Cc1cc(-c2[nH]c3ccc(C4CCN(CC(C)(C)C(=O)O)CC4)cc3c2C(C)C)cc(C)n1` [Example 321, 3-(4-(2-(2,6-dimethylpyridin-4-yl)-3-isopropyl-1H-indol-5-yl)piperidin-1-yl)-2,2-dimethylpropanoic acid], the IC50 in test [1] is 68.5 nM; in test [2], > 50000 nM; in test [3] it was 17.1 nM.

As to `CCN1CCC(c2ccc3[nH]c(-c4cc(C)nc(C)c4)c(C(C)C)c3c2)CC1` [Example 322, 2-(2,6-dimethylpyridin-4-yl)-5-(1-ethylpiperidin-4-yl)-3-isopropyl-1H-indole], the IC50 was found to be 3.7 nM in test [1], 401 nM in test [2] and 2.1 nM in test [3].

As for `CCCN1CCC(c2ccc3[nH]c(-c4cc(C)nc(C)c4)c(C(C)C)c3c2)CC1` [Example 323, 2-(2,6-dimethylpyridin-4-yl)-3-isopropyl-5-(1-propylpiperidin-4-yl)-1H-indole], the IC50 amounted to 3.9 nM in test [1], 359 nM in test [2] and 1.4 nM in test [3].

Take `COCCOCCN1CCC(c2ccc3[nH]c(-c4cc(C)nc(C)c4)c(C(C)C)c3c2)CC1` [Example 324, 2-(2,6-dimethylpyridin-4-yl)-3-isopropyl-5-(1-(2-(2-methoxyethoxy)ethyl)piperidin-4-yl)-1H-indole]: the IC50 in test [1] turned out to be 4.4 nM; in test [2] it was 413 nM; in test [3], 7.4 nM.
